# Laboratory results: US20250057756A1, “FORMULATIONS AND DOSES OF PEGYLATED URICASE” (Cartesian Therapeutics, Inc., priority 2016, published 2025)
# Values joined by “and” are separate entries in the source; they are usually repeats but may differ in a detail not shown here. Equal entries are not always repeated. Where two headings read alike, the source gives them in different places.
# Legend:
# [1] = cited from earlier work; for subjects requiring treatment for at least one gout flare: first 8 weeks, with gout flare prophylaxis
# [2] = cited from earlier work; for patients with gout flares requiring treatment in a month: colchicine prophylaxis
# serum uric acid (SUA) = conditions: cited from earlier work
# uric acid [3] = conditions: cited from earlier work; for mean uric acid levels at four weeks: monthly dosing
# ADAs = conditions: all KRYSTEXXA-treated subjects; cited from earlier work
# [4] = cited from earlier work; for flares per patient over the first 3 months: Phase 3; for Flares per patient month: Phase 3 trials
# uricase specific ADAs [5] = assay: Uricase specific ADA formation in uricase deficient mice; type: in vivo; conditions: treated days 0, 7 and 14, pegsiticase alone challenge days 35 and 42
# Method: (§1) A pharmacology study in mice that were genetically deficient in endogenous uricase was conducted. The study evaluated the efficacy of a dose regimen consisting of three immunizations with SEL 212 followed by doses of pegsiticase alone in preventing the formation of ADAs to pegsiticase. The treatment period consisted of the first 14 days of the study. In the study, mice were separated into three treatment groups. During the treatment period: • the first group, referred to as the Untreated Group, received no treatment; • the second group, referred to as the Pegsiticase Group, was treated with pegsiticase alone; and • the third group, referred to as the SVP Rapamycin+Pegsiticase Group, was treated with SVP Rapamycin co administered with pegsiticase.
# (§2) The Pegsiticase Group and SVP Rapamycin+Pegsiticase Group were treated on days zero, seven and 14 of the treatment period. Each group was then treated with pegsiticase alone on days 35 and 42 of the study, or the challenge period. Uricase specific ADA levels were recorded to determine the formation of ADAs to pegsiticase. Uric acid levels were measured to determine effectiveness of SVP Rapamycin co administered with pegsiticase in lowering uric acid levels below 6 mg/dl, which is the treatment target for gout patients.
# uric acid [6] = assay: Uric acid levels in uricase deficient mice; type: in vivo
# Method: as §1, §2
# serum uric acid [7] = assay: Phase 1a clinical trial: serum uric acid; type: in vivo, human
# Method: (§3) The Phase 1a clinical trial for SEL 212 was an ascending dose trial of pegsiticase alone in 22 subjects with elevated serum uric acid levels greater than 6 mg/dl who were separated into five cohorts. Each cohort received a single intravenous infusion of pegsiticase at the following dose levels of 0.1 mg/kg for Cohort #1, 0.2 mg/kg for Cohort #2, 0.4 mg/kg for Cohort #3, 0.8 mg/kg for Cohort #4 and 1.2 mg/kg for Cohort #5. Dosing began with the lowest dose and only after an entire cohort was safely dosed was the next cohort started. The subjects were monitored during a 30 day period post infusion with visits occurring on day 7, 14,21 and the end of trial visit on day 30. Blood and serum of each patient was evaluated for serum uric acid, ADAs (specifically anti-peg, anti-uricase and anti-pegsiticase) and safety parameters.
# FIG. 4 depicts average serum uric acid levels of the Phase 1a clinical trial's five cohorts tested at different measurement intervals (Day 7, 14, 21 and 30) during the course of the 30 day period following the single intravenous infusion of pegsiticase at the outset of the trial.
# The serum uric acid levels were measured at baseline and days seven, 14, 21 and 30 and uricase specific ADA levels at baseline and days seven, 14 and 30 following a single intravenous injection of pegsiticase. Uricase specific ADA levels at day 21 in the Phase 1a clinical trial were not measured. Based on the results from the Phase 1a clinical trial, it was observed that pegsiticase at a tolerated dose is capable of achieving and maintaining a reduction of serum uric acid below the target of 6 mg/dl for a 30 day period in the absence of inhibitory uricase specific ADAs.
# uricase specific ADAs [8] = assay: Phase 1a clinical trial: uricase specific ADAs; type: in vivo, human; conditions: single infusion; varying levels
# Method: as §3
# The serum uric acid levels were measured at baseline and days seven, 14, 21 and 30 and uricase specific ADA levels at baseline and days seven, 14 and 30 following a single intravenous injection of pegsiticase. Uricase specific ADA levels at day 21 in the Phase 1a clinical trial were not measured. […]
# [9] = Phase 1a clinical trial: safety; type: in vivo, human; conditions: single intravenous infusion, five dose levels 0.1-1.2 mg/kg
# Method: as §3
# serum uric acid [10] = assay: Phase 1b clinical trial: serum uric acid; type: in vivo, human
# Method: (§4) The Phase 1b clinical trial enrolled 63 patients with serum uric acid levels greater than 6 mg/dl separated into 11 cohorts. A single intravenous infusion of SVP Rapamycin alone at the following ascending dose levels was administered to four cohorts in ascending order. Each cohort consisted of seven patients and were designated as follows: Cohort #1 (0.03 mg/kg), Cohort #3 (0.1 mg/kg), Cohort #5 (0.3 mg/kg) and Cohort #7 (0.5 mg/kg) collectively the SVP Rapamycin Cohorts. After a cohort of the SVP-Rapamycin alone had successfully and safely been dosed the corresponding dose level of SVP Rapamycin was combined with a fixed dose of pegsiticase (0.4 mg/kg). The combination was co-administered sequentially as a single intravenous infusion, with the SVP Rapamycin infusion preceding the pegsiticase infusion. […] The subjects were monitored during a 30 day period post infusion with visits occurring on day 7, 14,21 and the end of trial visit on day 30. Blood and serum of each patient was evaluated for serum uric acid, ADAs (specifically anti-PEG, anti-uricase and anti-pegsiticase) and safety parameters. […]
# uricase specific ADAs [11] = assay: Phase 1b clinical trial: uricase specific ADAs; type: in vivo, human; conditions: pegsiticase alone 0.4 mg/kg, Cohort #3 Phase 1a and Cohort #9 Phase 1b; resulting in return to baseline serum uric acid
# Method: as §4
# In the Phase 1a clinical trial, uricase specific ADA levels at day 21 was not measured. […] As a result, for the Phase 1b clinical trial, uricase specific ADA levels at day 21 were monitored.
# [12] = Phase 1a and Phase 1b clinical trials: safety and tolerability; type: in vivo, human; conditions: 85 subjects dosed in Phase 1a and Phase 1b
# Method: as §3
# The Phase 1b clinical trial enrolled 63 patients with serum uric acid levels greater than 6 mg/dl separated into 11 cohorts. A single intravenous infusion of SVP Rapamycin alone at the following ascending dose levels was administered to four cohorts in ascending order. […] The subjects were monitored during a 30 day period post infusion with visits occurring on day 7, 14,21 and the end of trial visit on day 30. Blood and serum of each patient was evaluated for serum uric acid, ADAs (specifically anti-PEG, anti-uricase and anti-pegsiticase) and safety parameters. […]
# [13] = Gout flare in first month, pegsiticase alone (Phase 1, Table 1); type: in vivo, human
# Method: as §3
# When pegsiticase was administered alone in the Phase 1 described in Example 2, 57% (4 out of 7 patients) of those with a history of gout had signs of gout flare in the first month after receiving the study drug (Table 1). […] This subject was in the cohort that received only the rapamycin-comprising nanocarrier (without uricase). […] The flare was, therefore, unrelated to a change in serum uric acid. […] This patient's serum uric acid level dropped from 8.8 mg/dL to 0.1 mg/dL within 90 minutes following drug administration. So, although this subject had only been diagnosed with asymptomatic hyperuricemia before the study, a flare did seem to coincide with a drop in serum uric acid.
molecule,measurement,setting,value
"Cc1nc(-c2ccc(OCC(C)C)c(C#N)c2)sc1C(=O)O [Febuxostat, febuxostat]",Flares per patient month,[1]; 80 mg/day,0.77 flares per patient month
same,subjects requiring treatment for at least one gout flare,[1]; 80 mg/day,55 out of 255
same,Flares per patient month,"[1]; 80 mg/day, listed as febuxostat",at least 0.22 flares per patient month
same,Flares per patient month,[1]; 120 mg/day,0.36 flares per patient month
same,subjects requiring treatment for at least one gout flare,[1]; 120 mg/day,90 out of 250
same,Flares per patient month,"[1]; 120 mg/day, listed as febuxostat",≥ 0.36 flares per patient month
"O=C(O)CSc1nnc(Br)n1-c1ccc(C2CC2)c2ccccc12 [Lesinurad, lesinurad]",patients with gout flares requiring treatment in a month,[2]; 200 mg daily,10 out of 46
same,Flares per patient month,[2]; 200 mg/day,0.22 flares per patient month
same,patients with gout flares requiring treatment in a month,[2]; 400 mg daily,13 out of 42
same,Flares per patient month,[2]; 400 mg/day,0.31 flares per patient month
same,patients with gout flares requiring treatment in a month,[2]; 600 mg daily,15 out of 48
same,Flares per patient month,[2]; 600 mg/day,0.31 flares per patient month
same,Time of efficacy (area under curve of mean sUA levels over time),serum uric acid (SUA); Lesinurad 200 mg/day,158.5
same,Time of efficacy (area under curve of mean sUA levels over time),serum uric acid (SUA); Lesinurad 400 mg/day,165.8
same,Time of efficacy (area under curve of mean sUA levels over time),serum uric acid (SUA); Lesinurad 600 mg/day,167.5
Pegloticase,"non-responders, share of subjects",uric acid [3]; monthly dosing cohorts,65%
same,subjects classified as responders (uric acid below 6 mg/dl for 80% of the time at months three and six),uric acid [3]; monthly dosing cohorts,35%
same,mean uric acid levels at four weeks,uric acid [3]; non-responders,above 6 mg/dl
same,mean uric acid levels at four weeks,uric acid [3]; responders,above 4 mg/dl
same,treated subjects that developed ADAs,ADAs,89%
same,flares per patient over the first 3 months,"[4]; biweekly pegloticase, 85 patients",2.3
same,flares per patient over the first 3 months,"[4]; monthly pegloticase, 84 patients",2.7
same,Flares per patient month,[4]; pegloticase biweekly,0.77 flares per patient month
same,Flares per patient month,[4]; pegloticase monthly,0.90 flares per patient month
same,Flares per patient month,"[4]; pegloticase monthly, listed as pegloticase",0.9 flares per patient month
same,study subjects reporting one or more flares,"[4]; phase 2 trial, three-month study",88%
same,patients with gout flares in the first 3 months,"[4]; two phase 3 trials, despite gout flare prophylaxis (colchicine or NSAIDs)",about 80%
same,Time of efficacy (area under curve of mean sUA levels over time),"serum uric acid (SUA); Pegloticase biweekly, Nonresponders",Nonresponders-84.35
same,Time of efficacy (area under curve of mean sUA levels over time),"serum uric acid (SUA); Pegloticase biweekly, Responders",Responders-26.6
same,Time of efficacy (area under curve of mean sUA levels over time),"serum uric acid (SUA); Pegloticase monthly, Nonresponders",Nonresponders-99.75
same,Time of efficacy (area under curve of mean sUA levels over time),"serum uric acid (SUA); Pegloticase monthly, Responders",Responders-53.55
Recombinant Pegylated Candida Urate Oxidase [pegsiticase],uricase specific ADA formation,uricase specific ADAs [5],developed uricase specific ADAs
same,uric acid levels,uric acid [6]; after the first dose in the treatment period,below 6 mg/dl
same,uric acid levels,uric acid [6]; subsequent doses in the treatment period and challenge period,> 6 mg/dL
same,time average serum uric acid levels sustained below 6 mg/dl,"serum uric acid [7]; each cohort, depending on the dose level",14 to 30 days
same,time within which serum uric acid levels dropped significantly,"serum uric acid [7]; single intravenous infusion, all 22 subjects",approximately 10 hours
same,time after dosing by which serum uric acid levels rebounded,"serum uric acid [7]; single intravenous infusion, majority of patients",14 to 21 days
same,uricase specific ADAs,uricase specific ADAs [8],induced uricase specific ADAs in all subjects
same,serious adverse events,[9],no serious adverse events
same,tolerability,[9],well tolerated
same,subjects returned to baseline serum uric acid levels by day 30,serum uric acid [10]; Cohort #9: pegsiticase alone 0.4 mg/kg,four of the five
same,serum uric acid levels,"serum uric acid [10]; pegsiticase alone 0.4 mg/kg, Cohort #3 Phase 1a and Cohort #9 Phase 1b, initial control, enzyme activity lost past day 14",below 6 mg/dL
same,uricase specific ADA formation,uricase specific ADAs [11],uricase specific ADA formation at day 14
same,tolerability,[12],well tolerated
same,Flare in 1st month,"[13]; individual subject with history of gout, SEL-037 0.8 mg/kg",no
same,Flare in 1st month,"[13]; individual subjects with history of gout, SEL-037 0.1 mg/kg, 0.1 mg/kg",no and yes (2×) and yes (positive for
same,Flare in 1st month,"[13]; individual subjects with history of gout, SEL-037 0.2 mg/kg, 0.2 mg/kg","no and yes (mild gout, right"
same,subjects with a history of gout with signs of gout flare in the first month,"[13]; pegsiticase alone, Phase 1, 4 out of 7 patients",57%
